{
  "source": "patent US10980769B2",
  "about": "“Tiglien-3-one derivatives” (QBIOTICS PTY LTD, priority 2005, dated 2021)",
  "key": {"B16 mouse melanoma": {"test_system": "B16 mouse melanoma", "assay": "Topical treatment of B16 melanoma tumours in C57BL/6 mice", "type": "in vivo", "protocol": "(§1) Tumour cells were injected subcutaneously (2 million cells/site in 50 μL culture medium for LK2 cells, 0.5 million for B16) into 4 sites each on the flanks of nude mice (for LK2 cells) or C57BL/6 mice (B16 mouse melanoma cells). When tumours became visible (2-4 mm diameter) five to 10 days after injection of cells, 37 μg of EBI-46 in 25 μL, of isopropanol gel was applied to each tumour site, each day for 3 days. Tumour size was measured with calipers at appropriate intervals.\n(§2) Animal experiments were conducted under Queensland Institute of Medical Research (QIMR) Animal Ethics Committee approvals. The B16 mouse melanoma model was obtained by injecting 0.5 million B16 mouse melanoma cells subcutaneously into each of the 2 flanks of a male C57BL/6 mouse. The human tumour xenografts were obtained by injecting 2 million of the respective tumour cell line into each of 4 sites on the flanks of male nude mice (BALB/c background). EBI-46 was applied: (a) topically by dilution of a concentrated solution in acetone into an isopropanol gel, once a day for 3 days; (b) intralesionally by injection into the tumour of drug dissolved in 25% propylene glycol-0.1 M saline, (c) systemically by injection intraperitoneally in 25% propylene glycol in 0.1 M saline. Tumour size was measured with electronic callipers in mm and converted to volume (cubic mm) using the formula: Tumour volume=length×breadth×breadth/2. Results\nTopical application of EBI-46 in an isopropanol gel was carried out on the aggressive B16 mouse melanoma in its natural (syngeneic) host, C57BL/6 mice (0.5 million tumour cells injected per site).\nThe frequency (1 daily dose for 3 days only) and dose level for topical application of PKC activators was selected on the basis of in vitro activity on cell lines. The materials were dissolved in acetone and diluted into an isopropanol gel for topical application.\nThe aggressive and rapidly growing B16 mouse melanoma is recognised as a very stringent tumour model in which to test anticancer agents. Stringency was further increased by injecting at least 10× more tumour cells than the minimum required to form a tumour in the animal. […] Such tumours could be distinguished from subcutaneous tumours by their immobility when the skin was pulled around the body of the animal."}, "[1]": {"test_system": "murine B-cell lymphoma line A20", "assay": "Systemic (intraperitoneal) treatment of A20 lymphoma in SCID-NOD mice", "type": "in vivo", "settings": "5 doses of 20-25 μg from day 18, one mouse", "protocol": "as §2\nThe murine B-cell lymphoma line A20 was used as an experimental model because it has been reported to grow well in mice and closely models the human situation.\nSCID-NOD mice (BALB/c background) were shaved and 10E7 A20 cells injected subcutaneously (2 sites per mouse). The tumours tended to grow in a flat, diffuse manner and became raised and measurable at the 10E7 sites only after about 15 days. […]"}, "LK2 mouse SCC": {"test_system": "LK2 mouse SCC", "assay": "Topical treatment of LK2 mouse SCC tumours in nude mice", "type": "in vivo", "protocol": "as §1, §2\nThe above was repeated using the UVB-induced mouse squamous cell carcinoma (SCC) grown on nude mice (FIG. 6) and treated with partially-purified EBI-46.\nThe most recent experiment with topical application used 2 different doses of EBI-46 (FIG. 7). The low dose was 100 μg/site and the high dose was 350 μg/site/treatment."}, "PKC": {"test_system": "PKC", "assay": "PKC activation in cultured tumour cells (scattering and growth inhibition of MCF7)", "type": "cell-based, human", "settings": "defined by scattering and growth inhibition of MCF7 breast cancer cells"}, "normal skin": {"test_system": "normal skin", "assay": "Inflammatory response of skin", "settings": "in vivo"}, "[2]": {"test_system": "K562 leukemia, MCF-7 breast cancer, Colo-205 colon cancer and D04 and SKMel-5 melanoma", "assay": "In vitro growth inhibition profile, sensitive versus other cell lines", "type": "cell-based, human", "protocol": "In addition, scattering of MCF-7 and HT-29 colon tumour cells was observed, typical of PKC activators. […] Additionally, given their similarity in structure, EBI-47, EBI-59 and EBI-61 are also considered to be protein kinase C activators.\nFor growth inhibition assays, cells (2000-5000/well) were seeded in 96-well plates in duplicate, treated with drug next day and allowed to grow for a further 5-6 days. The plates were then washed in PBS (phosphate buffered saline, pH 7.2), fixed with ethanol and stained by addition of 50 μL 0.4% SRB (sulforhodamine) in 1% acetic acid. The plate was left at room temperature for a minimum of 15 minutes, then washed rapidly with tap water and then twice with 1% acetic acid. After addition of 100 μL/well of 10 mM Tris base (unbuffered, pH>9), plates were left for a minimum of 5 minutes, then the absorbance was read at 564 nm on the ELISA reader, with a 3 second prior shaking. After subtraction of a blank (wells with no cells, typically about 0.04), growth inhibition was calculated as % of the untreated control and plotted against dose. […]"}, "[3]": {"settings": "topical, approximately 150 μg/site"}},
  "note": "Entries after “also recorded” stand apart in the source; their conditions may differ.",
  "data": [
    {"compound": "C/C=C(\\C)C(=O)OC1C(C)C2(O)C(C3OC3(CO)C(O)C3(O)C(=O)C(C)=CC32)C2C(C)(C)C12OC(=O)C(C)CC", "note": "(stereo not shown) [EBI-46, 12-tigloyl-13-(2-methylbutanoyl)-6,7-epoxy-4,5,9,12,13,20-hexahydroxy-1-tiglian-3-one]", "values": [
      {"measurement": "systemic toxicity or lung metastases on post mortem", "setting": "B16 mouse melanoma; topical 37 μg per site once a day for 3 days", "result": "There were no signs of"},
      {"measurement": "tumour growth", "setting": "B16 mouse melanoma; topical 37 μg per site once a day for 3 days starting at day 5", "result": "inhibition of tumour growth."},
      {"measurement": "inflammatory response", "setting": "B16 mouse melanoma; [3]", "result": "mild"},
      {"measurement": "systemic toxicity or lung metastases", "setting": "B16 mouse melanoma; [3]", "result": "no sign of systemic toxicity or lung metastases"},
      {"measurement": "tumour sites cured", "setting": "B16 mouse melanoma; [3]", "result": "one site apparently cured"},
      {"measurement": "tumour response", "setting": "B16 mouse melanoma; topical, approximately 150 μg/site, 1 daily dose for 3 days", "result": "good response"},
      {"measurement": "tumour growth", "setting": "[1]", "result": "strongly inhibited"},
      {"measurement": "tumours cured and healed without scarring", "setting": "LK2 mouse SCC; 37 ug/site in isopropanol gel once a day for 3 days, nude mice", "result": "without scarring of 3 out of 4"},
      {"measurement": "systemic toxicity or lung metastases on post mortem", "setting": "LK2 mouse SCC; 37 ug/site once a day for 3 days", "result": "no signs of systemic toxicity"},
      {"measurement": "tumour growth inhibition result", "setting": "LK2 mouse SCC; high dose 350 μg/site/treatment", "result": "excellent result"},
      {"measurement": "PKC activity", "setting": "PKC", "result": "yes"},
      {"measurement": "effect on skin", "setting": "normal skin", "result": "can cause inflammation of skin; also recorded: causes an inflammatory response in normal skin"},
      {"measurement": "growth-inhibiting doses in sensitive cell lines lower than for other human tumour cell lines and normal human fibroblasts", "setting": "[2]", "result": "approximately 100 fold"}
    ]}
  ]
}
